molecular target: T1, Androgen Receptor dual T878A/L702H mutant protein (Homo sapiens, UniProt P10275, L702H/T878A); experiment: Dual Mutant (T878A/L702H) Androgen Receptor Degradation Assay (HTRF, MDA-PCa-2b cells); format: cell-based; details: 18 h, 18 h incubation, read-out: mean asymptote max
T1 construct: host or cells: MDA-PCa-2b
T1 sequence (P10275 1-920 L702H/T878A): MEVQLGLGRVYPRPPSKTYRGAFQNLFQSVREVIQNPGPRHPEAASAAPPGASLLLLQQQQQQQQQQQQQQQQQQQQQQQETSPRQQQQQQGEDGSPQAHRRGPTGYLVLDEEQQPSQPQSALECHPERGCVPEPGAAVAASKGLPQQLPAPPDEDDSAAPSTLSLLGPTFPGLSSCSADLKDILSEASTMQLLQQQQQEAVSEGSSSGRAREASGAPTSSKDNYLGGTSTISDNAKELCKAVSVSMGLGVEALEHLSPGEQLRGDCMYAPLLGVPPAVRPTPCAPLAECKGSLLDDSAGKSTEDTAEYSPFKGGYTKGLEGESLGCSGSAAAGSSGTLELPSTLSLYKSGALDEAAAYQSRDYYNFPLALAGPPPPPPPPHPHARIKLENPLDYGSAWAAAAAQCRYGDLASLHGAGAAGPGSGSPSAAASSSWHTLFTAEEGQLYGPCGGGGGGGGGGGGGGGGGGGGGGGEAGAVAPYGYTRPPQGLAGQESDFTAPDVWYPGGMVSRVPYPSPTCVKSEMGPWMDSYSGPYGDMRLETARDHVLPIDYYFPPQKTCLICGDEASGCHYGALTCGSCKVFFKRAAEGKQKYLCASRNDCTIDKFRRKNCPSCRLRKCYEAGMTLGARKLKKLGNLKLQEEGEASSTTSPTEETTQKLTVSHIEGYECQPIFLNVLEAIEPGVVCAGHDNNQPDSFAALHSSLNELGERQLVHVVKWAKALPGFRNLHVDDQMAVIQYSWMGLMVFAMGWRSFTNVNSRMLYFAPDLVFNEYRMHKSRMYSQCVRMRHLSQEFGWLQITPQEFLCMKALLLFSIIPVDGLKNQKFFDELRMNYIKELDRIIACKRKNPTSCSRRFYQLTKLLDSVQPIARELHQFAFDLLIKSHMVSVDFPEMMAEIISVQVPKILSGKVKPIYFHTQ
Description: Degradation of Androgen Receptor dual T878A/L702H mutant protein in human MDA-PCa-2b (ATCC) cells treated with PROTACs was quantified using the HTRF Human Androgen Receptor Detection Kit (PerkinElmer) in 384 well assay plate format. 10 mM DMSO (Sigma-Aldrich) stock solutions of PROTACs were prepared and diluted across an 11 concentration, 3-fold increment range, and 25 nL dispensed into a white opaque bottomed 384 well assay plate (Thermofisher) using an acoustic ECHO dispenser (Labcyte). Cells were cultured in growth medium (BRFF—HPC-1 (Athena ES) supplemented with 20% FBS (Gibco), penicillin 50U/mL and streptomycin 50 μg/mL (Gibco, #15140-122)) in collagen I or poly-D-lysine coated T175 flasks (Corning, #356487 or #356539, respectively). For the assay, cells were harvested from the flask, centrifuged at 200 g for 5 min and then resuspended in the growth medium. 25 μl of cell suspension containing 10,000 cells was dispensed into each well of the assay plate containing the test compounds, which was then incubated for 18 h at 37° C./5% CO2. Control wells were included on each assay plate, with assay medium without cells being the no AR remaining 100% effect control, and cells treated with DMSO vehicle only, without PROTAC, the 0% effect control. After 18 h incubation 8 μl of supplemented lysis buffer from HTRF kit was added to each well and the plate shaken at 500 rpm for 1 h at room temperature. 8 μl of antibody mix in Detection buffer from HTRF kit was added to each well and the plate was incubated for 2 h in dark at mom temperature. The fluorescence was measured at both 620 nm and 665 nm using an excitation wavelength of 337 nm with a PHERAstar microplate reader (BMG Labtech) and the % AR protein remaining in each well was calculated by normalising the HTRF ratio (665 nm signal/620 nm signal) value to the control wells mentioned above. Parameters corresponding to the potency and efficacy estimates of the PROTACs were obtained from these normalised values using curve fitting software (IDBS ActivityBase). These included the DC50 and the Dmax estimates. Two versions of the DC50, called relative DC50 and absolute DC50, were typically generated. These are the inflection point of a fitted 4 parameter sigmoidal response curve and the interpolated concentration of PROTAC corresponding to 50% of the protein being degraded, respectively. The Dmax parameter was the maximum experimentally observed degradation and the asymptote max parameter the fitted response curve asymptote maximum.

SMILES	Dmax [%]
CC1(C)[C@H](NC(=O)c2cc(F)c(N3CCC(CN4CCC(n5ncc6c(N7CCC(=O)NC7=O)cccc65)CC4)CC3)cc2F)C(C)(C)[C@H]1Oc1ccc(C#N)c2ncccc12 [Example 35, N-((1r,3r)-3-((8-Cyanoquinolin-5-yl)oxy)-2,2,4,4-tetramethylcyclobutyl)-4-(4-((4-(4-(2,4-dioxotetrahydropyrimidin-1(2H)-yl)-1H-indazol-1-yl)piperidin-1-yl)methyl)piperidin-1-yl)-2,5-difluorobenzamide]	≥ 50
CCOc1cc(O[C@H]2C(C)(C)[C@H](NC(=O)c3ccc(N4CCC(CN5CCC(n6ncc7c(N8CCC(=O)NC8=O)cccc76)CC5)CC4)c(F)c3)C2(C)C)ccc1C#N [Example 4, N-((1r,3r)-3-(4-Cyano-3-ethoxyphenoxy)-2,2,4,4-tetramethylcyclobutyl)-4-(4-((4-(4-(2,4-dioxotetrahydropyrimidin-1(2H)-yl)-1H-indazol-1-yl)piperidin-1-yl)methyl)piperidin-1-yl)-3-fluorobenzamide]	≥ 50
COc1cc(O[C@H]2C(C)(C)[C@H](NC(=O)c3ccc(N4CCC(CN5CCC(n6ncc7c(N8CCC(=O)NC8=O)cccc76)CC5)CC4)c(F)c3)C2(C)C)ccc1C#N [Example 21, N-((1r,3r)-3-(4-Cyano-3-methoxyphenoxy)-2,2,4,4-tetramethylcyclobutyl)-4-(4-((4-(4-(2,4-dioxotetrahydropyrimidin-1(2H)-yl)-1H-indazol-1-yl)piperidin-1-yl)methyl)piperidin-1-yl)-3-fluorobenzamide]	≥ 50
COc1cc(O[C@H]2C(C)(C)[C@H](NC(=O)c3ccc(N4CCC(CN5CCC(n6ncc7c(N8CCC(=O)NC8=O)c(F)ccc76)CC5)CC4)c(F)c3)C2(C)C)ccc1C#N [Example 25, N-((1r,3r)-3-(4-Cyano-3-methoxyphenoxy)-2,2,4,4-tetramethylcyclobutyl)-4-(4-((4-(4-(2,4-dioxotetrahydropyrimidin-1(2H)-yl)-5-fluoro-1H-indazol-1-yl)piperidin-1-yl)methyl)piperidin-1-yl)-3-fluorobenzamide]	≥ 50

Reference: patent publication US12577231B2, “Androgen receptor PROTACS” (GlaxoSmithKline Intellectual Property Development Limited, priority 2023, dated 2026)
